The numbers were not newly measured in patent US20220313772A1, “Method of Treating a Child with Central Precocious Puberty using an Extended Release Composition” (Tolmar International Limited, priority 2019, published 2022), which cites them from elsewhere.

For the data set the following is noted: in vivo.

As for `CCNC(=O)[C@@H]1CCCN1C(=O)[C@H](CCCNC(=N)N)NC(=O)[C@H](CC(C)C)NC(=O)[C@@H](CC(C)C)NC(=O)[C@H](Cc1ccc(O)cc1)NC(=O)[C@H](CO)NC(=O)[C@H](Cc1c[nH]c2ccccc12)NC(=O)[C@H](Cc1c[nH]cn1)NC(=O)[C@@H]1CCC(=O)N1` [Leuprolide acetate, leuprolide acetate], the “adverse effects at high dose” value is “no adverse effects differing from those observed with a 1 mg/day dose”.
